These results are taken from patent US12285034B2, “Human and non-human animal use of microbial anaplerotic oil” (HELIAE DEVELOPMENT, LLC, priority 2017, dated 2025).

Read-outs that look alike come from different tables or passages of the source.

In data set [1] the test system is Aurantiochytrium acetophilum HS399. It counts as cell-based. From the text: In another implementation, a New Brunswick 10 L Bioflo Pro 300 fermenter (Eppendorf) can be used to provide an improvement in the productivity of OCFAs accumulation, previously identified in flasks and bubble columns. In this implementation, a bioprocess can be devised to incorporate one or more portions of one or more techniques described herein. […] As an example, in this implementation, the pH-auxostat is operated at a pH set point of 6.5 to mitigate propionic toxicity. […] A control treatment can be provided […] propionate, to be used as comparison. […] The fermenters are aerated at 0.5 vvm and are maintained at 27° C. under axenic conditions. […] This medium can also contain a trace element solution (25 ml/L) and vitamin solution (5 ml/L). The trace element solution contains (g/L): […] In this example, the fermenter is fed another 5-6 L of a medium containing (g/L): ammonium phosphate (2.5), ammonium hydroxide (29% pure) (15.2), corn syrup DE95 (1143). This medium can also contain a trace element solution (25 ml/L) and a vitamin solution (5 ml/L). In this example, this medium is fed in a DO-stat mode in response to dissolved oxygen values detected above 15% saturation. […] The pH is maintained at 5.8 using NaOH, while the batch ammonia is consumed. The pH can drift to higher values when the residual ammonia is substantially exhausted from the fermenter. […] Culture materials and media can be autoclaved (e.g., 121° C., 15 min) while separating the nitrogen and the carbon source. Foam can be controlled (e.g., automatically) through the addition of (<1 ml/L) Hodag antifoam. […] Residual glucose can be analyzed from culture supernatant (e.g., 5000 g; 5 min) using a colorimetric method based on glucose […] activity. Residual acetate and propionate can be analyzed by HPLC using an acceptable external standard.

Data set [2] has the same test system. The conditions noted are these: for OCFA / Total Fatty Acids: 73 h, 10 L fermenter. The method, then: […] In this implementation, the pH can be maintained at 7±1 in respective treatments.
In one implementation, fermenters may be used to culture A. acetophilum HS399. […] In this implementation, two treatments using different cyanocobalamin concentrations (0.00185, 0 μM) are compared in duplicates.

For the compound `CCC(=O)O` [Propionate, propionic acid], the effect on growth entry in data set [1] was “slightly inhibited”. In data set [1] (propionic acid titration), the OCFAs is on record as 60 % TFA, the accumulated lipids came to 70 % DW, the average cumulative productivities entry was “approximately 30 g/L/d” and the “productivity of OCFAs” value was determined as 10 g/L/day. This compound also returned a Cell dry weight in data set [1] (propionic acid titration, 10 L fermenter) of 170 g/L. Besides, the “consumption of propionic per gram of biomass” value in data set [1] (total consumed during process) is 0.155 g. Further, in data set [2] (10 L fermenters, pH-auxostat, 0 μM vs with cyanocobalamin), the “less propionic acid consumed without cyanocobalamin” value is listed as 30%. Besides, in data set [2] (cyanocobalamin 0 μM), the OCFA is reported as 52.0 % TFA, the “Total Fatty Acids” value was found to be 56.9 % DW, the Propionate deposition is on record as 65.7% and the gpropionate/gbiomass is recorded as 0.14. Moreover, in data set [2] (cyanocobalamin 0.37 μM), the OCFA was found to be 52.6 ± 0.5 % TFA, the “Total Fatty Acids” value is recorded as 54.7 ± 0.5 % DW, the Propionate deposition is given as 49.9% and the gpropionate/gbiomass was 0.18 ± 0.01. Besides, the “time in which initial propionate is consumed” value in data set [2] (initial 3 g/L, pH 7±1, flask) was at most 72 h.
